Test results: patent publication US6340694B1, “Diarylbenzopyran derivatives as cyclooxygenase-2 inhibitors” (Pacific Corporation, priority 1998, dated 2002)

Tests used:
COX-2 = target: T1, COX-2 (Mus musculus, UniProt Q05769); experiment: Evaluation of COX-2's inhibition efficacy (PGE2 radioimmuno assay, LPS-induced, aspirin-pretreated peritoneal macrophages); format: cell-based, C57BL/6 mouse; conditions: for inhibition at 0.1 µg/mL: 0.1 μg/ml; for inhibition at 1 µg/mL: 1 μg/ml; for inhibition at 10 µg/mL: 10 μg/ml
T1 construct: endogenous in cells; host or cells: peritoneal macrophages of C57BL/6 mouse, aspirin-pretreated, LPS-induced
T1 sequence (Q05769 18-604): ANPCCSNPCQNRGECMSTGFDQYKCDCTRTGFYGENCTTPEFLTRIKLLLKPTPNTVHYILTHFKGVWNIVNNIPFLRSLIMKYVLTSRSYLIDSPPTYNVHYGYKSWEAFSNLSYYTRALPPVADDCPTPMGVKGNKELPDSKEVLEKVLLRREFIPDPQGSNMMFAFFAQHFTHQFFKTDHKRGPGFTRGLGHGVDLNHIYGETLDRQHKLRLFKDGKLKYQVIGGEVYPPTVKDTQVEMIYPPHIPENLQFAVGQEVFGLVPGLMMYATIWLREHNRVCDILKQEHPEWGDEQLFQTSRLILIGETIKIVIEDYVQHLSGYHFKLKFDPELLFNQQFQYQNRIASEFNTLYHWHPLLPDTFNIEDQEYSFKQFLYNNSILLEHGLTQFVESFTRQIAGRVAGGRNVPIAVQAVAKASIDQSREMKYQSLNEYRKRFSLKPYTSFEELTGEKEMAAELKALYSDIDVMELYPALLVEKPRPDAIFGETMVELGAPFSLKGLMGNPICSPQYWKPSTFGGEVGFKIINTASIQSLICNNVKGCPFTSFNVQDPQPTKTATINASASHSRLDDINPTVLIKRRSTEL
Procedure: Regarding the compounds in the above Examples and indomethacin, the inhibition efficacy of COX-2 and COX-1 are being measured by the following two methods. […] Evaluation of COX-2's Inhibition Efficacy (J. Pharmacol. Exp. […] After cleaning C57BL/6 mouse's abdomen by 70% EtOH, the skin of mouse's abdomen was eliminated cautiously not to harm peritomeum and 5 ml of cold PBS was poured into the abdominal cavity and in certain times later macrophage-bleeding abdominal-liquid was collected by syringe. […] After putting 1 ml cell suspension having cell number of 1×10^6 cells/mu into each 24-well microtiter plates, macrophages were adhered to the bottom of plate by culturing in the condition of 5% CO2/95% O2, at a temperature of 37° C. for 2 hours. Other cells not being adhered to were eliminated by washing two times with PBS. The purity of macrophages obtained through this process was identified by differential counting. […] After inducing COX-2 by LPS, the cell culture medium was eliminated and macrophages was washed two times with PBS. And 1 ml of RRPI-1640 badge was added to each well again and after treating them with sample with appropriate concentration, they were cultured at a temperature of 37i É for 10 minutes. And then treated them with arachidonic acid to make their final concentration as 10 μM and cultured them additional 10 minutes, all the supernatant liquid of reaction was obtained. The amount of PGE2 produced in the supernatant liquid of reaction was determined by the PGE2 radioimmuno assay.

Compound	melting point	inhibition at 0.1 µg/mL (COX-2)	inhibition at 1 µg/mL (COX-2)	inhibition at 10 µg/mL (COX-2)
CS(=O)(=O)c1ccc(-c2oc3ccccc3c(=O)c2-c2ccc(Cl)cc2Cl)cc1 [Example 5, 3-(2,4-Dichlorophenyl)-2-(4-(methylsulfonyl)phenyl)-4H-1-benzopyran-4-one]	172 to 175 °C	39%	90%	100%
CS(=O)(=O)c1ccc(-c2oc3ccccc3c(=O)c2-c2cccs2)cc1 [Example 7, 2-(4-(Methylsulfonyl)phenyl)-3-(2-thienyl)-4H-1-benzopyran-4-one]	165 to 167 °C	–	–	–
CC(=O)c1ccc(-c2c(-c3ccc(S(C)(=O)=O)cc3)oc3ccccc3c2=O)cc1 [Example 8, 3-(4-Acetylphenyl)-2-(4-(methylsulfonyl)phenyl)-4H-1-benzopyran-4-one]	223 to 224 °C	–	–	–
CS(=O)(=O)c1ccc(-c2oc3ccccc3c(=O)c2-c2cccc3ccccc23)cc1 [Example 13, 2-(4-(methylsulfonyl)phenyl)-3-(1-naphthyl)-4H-1-benzopyran-4-one]	193 to 194 °C	–	–	–
CS(=O)(=O)c1ccc(-c2oc3ccccc3c(=S)c2-c2cccc(Cl)c2Cl)cc1 [Example 38, 3-(2,3-Dichlorophenyl)-2-(4-(methylsulfonyl)phenyl)-4H-1-benzopyran-4-thione]	191 to 192 °C	18%	77%	96%
Cc1cccc(-c2c(-c3ccc(S(C)(=O)=O)cc3)oc3ccccc3c2=S)c1 [Example 39, 3-(3-Methylphenyl)-2-(4-(methylsulfonyl)phenyl)-4H-1-benzopyran-4-thione]	201 to 202 °C	11%	31%	86%
CS(=O)(=O)c1ccc(-c2oc3ccccc3c(=S)c2-c2ccc(Cl)c(Cl)c2)cc1 [Example 42, 3-(3,4-Dichlorophenyl)-2-(4-(methylsulfonyl)phenyl)-4H-1-benzopyran-4-thione]	168 °C	–	–	–
Cc1ccc(-c2c(-c3ccc(S(C)(=O)=O)cc3)oc3ccccc3c2=S)cc1 [Example 43, 3-(4-Methylphenyl)-2-(4-(methylsulfonyl)phenyl)-4H-1-benzopyran-4-thione]	204 to 205 °C	–	–	–
COc1ccc(-c2c(-c3ccc(S(C)(=O)=O)cc3)oc3ccccc3c2=S)cc1 [Example 44, 3-(4-Methoxyphenyl)-2-(4-(methylsulfonyl)phenyl)-4H-1-benzopyran-4-thione]	199 °C	–	–	–
CS(=O)(=O)c1ccc(-c2oc3ccccc3c(=S)c2-c2ccccc2F)cc1 [Example 45, 3-(2-Fluorophenyl)-2-(4-(methylsulfonyl)phenyl)-4H-1-benzopyran-4-thione]	198 to 200 °C	–	–	–
CS(=O)(=O)c1ccc(-c2oc3ccccc3c(=S)c2-c2cccc(F)c2)cc1 [Example 46, 3-(3-Fluorophenyl)-2-(4-(methylsulfonyl)phenyl)-4H-1-benzopyran-4-thione]	212 °C	4%	67%	91%
Cc1ccc(-c2c(-c3ccc(S(N)(=O)=O)cc3)oc3ccc(F)cc3c2=O)cc1 [Example 49, 2-(4-(Aminosulfonyl)phenyl)-6-fluoro-3-(4-methylphenyl)-4H-1-benzopyran-4-one]	215 to 217 °C	32%	76%	92%
NS(=O)(=O)c1ccc(-c2oc3ccc(F)cc3c(=O)c2-c2ccc(Cl)cc2)cc1 [Example 50, 2-(4-(Aminosulfonyl)phenyl)-6-fluoro-3-(4-chlorophenyl)-4H-1-benzopyran-4-one]	215 to 217 °C	5%	80%	87%
